For test [1], the target named is Tubulin alpha chain (Sus scrofa) (UniProt P02550). As to the kind of experiment: Inhibition of [3H]colchicine binding to tubulin at a concentration of 5.0 uM.
For test [2], the target named is Tubulin alpha chain (Sus scrofa, UniProt P02550). Nature of the test: Compound was evaluated for inhibition of tubulin polymerization. The test is classed as functional.
Test [3] relates to CA46. As to the kind of experiment: Cytotoxicity was determined by inhibition against the Burkitt lymphoma CA46 cell line. Format: functional, cell-based. The settings on record: Homo sapiens.
The target in test [4] is Tubulin alpha chain (Sus scrofa) (UniProt P02550). Nature of the test: Inhibition of [3H]colchicine binding to tubulin at a concentration of 50 uM.
Test [5] concerns MCF7. Nature of the test: Cytotoxicity was determined by inhibition of cell growth of MCF-7 human breast carcinoma cell. The test is classed as functional, cell-based.

Bounds are passed on as bounds.

Tubulin alpha chain, sequence (P02550 whole entry, looked up): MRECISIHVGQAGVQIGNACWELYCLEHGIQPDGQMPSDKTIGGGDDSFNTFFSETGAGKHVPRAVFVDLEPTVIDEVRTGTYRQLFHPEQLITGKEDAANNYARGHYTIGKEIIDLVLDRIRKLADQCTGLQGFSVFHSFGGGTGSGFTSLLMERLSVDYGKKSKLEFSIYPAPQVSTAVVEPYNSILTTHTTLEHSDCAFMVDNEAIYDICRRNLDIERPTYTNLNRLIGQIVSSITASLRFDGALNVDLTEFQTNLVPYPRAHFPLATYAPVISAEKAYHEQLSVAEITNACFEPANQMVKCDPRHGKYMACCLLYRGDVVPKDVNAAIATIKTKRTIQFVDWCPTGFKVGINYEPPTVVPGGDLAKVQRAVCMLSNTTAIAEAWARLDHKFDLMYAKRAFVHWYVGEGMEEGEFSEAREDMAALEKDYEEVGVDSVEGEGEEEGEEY
Tubulin alpha chain (Sus scrofa), sequence (P02550 whole entry, looked up): as above

In test [1], `COc1ccc2c(C(=O)c3cc(OC)c(OC)c(OC)c3)c(-c3ccc(OC)c(O)c3)sc2c1` showed an inhibition of 21%.

`COc1ccc2c(C(O)c3ccc(OC)c(O)c3)c(-c3cc(OC)c(OC)c(OC)c3)sc2c1` (configuration not stated): the inhibition is 5% in test [1] and 73% in test [4]. For the same compound, the IC50 in test [2] is 6100 nM; in test [3] it was greater than 1000 nM.

`COc1ccc(C(=O)c2ccsc2-c2cc(OC)c(OC)c(OC)c2)cc1O` returned an IC50 in test [2] greater than 40000 nM.

Compound `COc1ccc(-c2sccc2C(=O)c2cc(OC)c(OC)c(OC)c2)cc1O` registered an inhibition in test [1] of 67%. Moreover, the results for the IC50 in test [2] and in test [5] were 1000 nM and 300 nM, respectively.

For the compound `COc1ccc(C2=C(c3cc(OC)c(OC)c(OC)c3)CCS2)cc1O`, the inhibition stood at 64% in test [1] and 88% in test [4]. Also, the results for the IC50 in test [2] and in test [5] were 3600 nM and 390 nM, respectively.

Regarding `COc1ccc(C(O)c2ccsc2-c2cc(OC)c(OC)c(OC)c2)cc1O` (configuration not stated), the inhibition in test [1] turned out to be 26%; in test [4] it was 74%. In addition, the IC50 came out at 8800 nM in test [2] and 500 nM in test [5].

In general, inhibition refers to the drop in the measured response relative to a control, in per cent. One may read the IC50 as the concentration that inhibits the measured activity by half. Higher therefore signals weaker potency.

The record behind these values is ChEMBL document CHEMBL1133936, “The synthesis and tubulin binding activity of thiophene-based analogues of combretastatin A-4” (Bioorg Med Chem Lett, 2001).
